Laboratory results taken from patent publication US20080103127A1, “METHODS FOR TREATING DISRUPTIVE BEHAVIOR DISORDERS” (priority 2006, published 2008).
Marks after values point to notes of the source that are not given here.

Tests used:
dominant rats = test: Reduction of Dominant Behavior Model (RDBM) of mania, dominant-submissive rat food competition test; type: in vivo, Sprague-Dawley rats
Description: In this study, the effects of COMPOUND #7 on dominant or submissive behavior in pairs of rats competing for food are examined. It has been shown that anti-manic drugs, including anticonvulsants, decrease dominance and antidepressant drugs reduce submissiveness. This model uses dominant behavior as a model of mania and submissive behavior as a model of depression. The dominance and submissiveness is defined in a competition test and measured as the relative success of two food-restricted rats to gain access to a feeder. Rats are randomly paired and placed in an apparatus allowing them to compete for a food reward. The dominant-submissive relationship develops over a 2-week period. The submissive or dominant animals in pairs selected after 2 weeks of training were treated orally […] (b.i.d.) with COMPOUND #7 at 3 or 30 mg/kg for 5 weeks. The partner of the drug-treated animal was treated with vehicle.
The objective of this study was to determine if COMPOUND #7 is active in the Reduction of Submissive Behavior Model (RSBM) of depression and the Reduction of Dominant Behavior Model (RDBM) of mania. Measurements were made at two doses (3 and 30 mg/kg) after oral twice a day (b.i.d.) administration. The effect of the drug in the RSBM was compared to the effect of fluoxetine (10 mg/kg) and vehicle (0.5% methylcellulose). The effect of the drug in the RDBM was compared with the effect of lithium (100 mg/kg) and vehicle (0.5% methylcellulose). The endpoints measured were the development of a significant reduction of submissive or dominant behavior and its time of onset.
The DSR developed by two rats competing for food uses the apparatus in FIG. 1. The methodology and equipment are described in several publications. (See, Malatynska E, Goldenberg R, Shuck L, Haque A, Zamecki P, Crites G, Schindler N, Knapp R J. Reduction of submissive behavior in rats: a test for antidepressant drug activity. Pharmacology 2002; 64:8; Malatynska E, Rapp R, Crites G. Dominant behavior measured in a competition test as a model of mania. In: International Behavioral Neuroscience Society Meeting, ed. IBNSCapri, Italy, 2002, p 26.; Bonnet U. Moclobemide: therapeutic use and clinical studies. CNS Drug Rev 2003; 9:97; Danysz W, Plaznik A, Kostowski W, Malatynska E, Jarbe T U, Hiltunen A J, Archer T. Comparison of desipramine, amitriptyline, zimeldine and alaproclate in six animal models used to investigate antidepressant drugs. Pharmacol Toxicol 1988; 62:42; Knapp R J, Goldenberg R, Shuck C, Cecil A, Watkins J, Miller C, Crites G, Malatynska E. Antidepressant activity of memory-enhancing drugs in the reduction of submissive behavior model. Eur J Pharmacol 2002; 440:27; Kostowski W, Malatynska E, Plaznik A, Dyr W, Danysz W. Comparative studies on antidepressant action of alprazolam in different animal models. Pol J Pharmacol Pharm 1986; 38, 471; Malatynska E, De Leon I, Allen D, Yamamura Hi. Effects of amitriptyline on GABA-stimulated ^36Cl^− uptake in relation to a behavioral model of depression. Brain Res Bull 1995; 37:53; Malatynska E, Kostowski W. The effect of antidepressant drugs on dominance behavior in rats competing for food. Pol J Pharmacol Pharm 1984; 36:531; Malatynska E, Kostowski W. Desipramine antagonizes clonidine-induced suppression of dominance in rats: possible involvement of amygdaloid nuclei. Pol J Pharmacol Pharm 1988; 40:357).
In the experiments described in this report Sprague-Dawley rats weighing 160 to 180 g were used. […]

[1] = tested on: isolation-induced aggressive behavior in pairs of mice; test: Isolation-induced aggression model in pairs of mice; type: in vivo, CrI:CD-1(ICR)BR albino mice
Protocol: The effects of test compound on the aggressive behavior of CrI:CD-1(ICR)BR albino mice were evaluated using the paradigm of isolation-induced aggression.
Male CrI:CD-1(ICR)BR albino mice, fasted overnight, were individually housed for 5 weeks in plastic cages on wood-chip bedding. Subsequently, they were paired for 1 minute daily for several days by placing one individually housed mouse (intruder) into the resident cage of another individually housed mouse (resident). The 1-minute pairing of intruder and resident mouse elicits aggressive behavior. Pairs of mice showing consistent aggressive behavior when paired for 1 minute, during several days were selected as subjects for drug testing.
Test compound (10 to 40 mg/kg p.o.) or the vehicle (methocel; aqueous 0.5%, w/v, hydroxypropyl methylcellulose solution) was administered (10 mL/kg) to the resident and intruder mouse. One and 4 hours after dosing, the mice were paired and the onset of fighting was recorded. […] The duration of fighting during a 1-minute test period was recorded. Mice were re-used in this procedure after several days to a week to allow metabolism and elimination of test compounds. The mice weighed 32 to 49 g at the time of testing and were fasted overnight before dosing. Mice were euthanized with CO2 if they were sick or injured.
Results were expressed as the median onset of fighting and median duration of fighting in vehicle and drug-treated groups. The statistical significance of an increase in the median onset or a reduction in the median duration of fighting in pairs of mice given test compound or its vehicle 1 and 4 hours after administration was determined using the nonparametric Wilcoxon test (p<0.05, 1-tailed).

[2] = 10 mg/kg p.o., 1 hour after administration
[3] = 10 mg/kg p.o., 4 hours after administration
[4] = 20 mg/kg p.o., 1 hour after administration
[5] = 20 mg/kg p.o., 4 hours after administration
[6] = 30 mg/kg p.o., 1 hour after administration
[7] = 30 mg/kg p.o., 4 hours after administration
[8] = 40 mg/kg p.o., 1 hour after administration
[9] = 40 mg/kg p.o., 4 hours after administration

NC(=O)OC[C@@H](O)c1ccccc1Cl [COMPOUND #7, carisbamate]
onset of significant decrease of dominant rat performance (time of treatment) (dominant rats; 3 mg/kg b.i.d. p.o.): 3 weeks
extent and onset of the effect on dominant rats compared with lithium (dominant rats; 3 mg/kg b.i.d. p.o. vs lithium 100 mg/kg i.p.): not significantly different
performance of dominant rats (dominant rats; 3 mg/kg b.i.d. p.o., 5 weeks, dominant rat treated, partner vehicle): decreased the performance
onset of increased competitiveness of dominant rats (time of treatment) (dominant rats; 30 mg/kg b.i.d. p.o.): 2 weeks
competitiveness of dominant rats compared to water treated dominant rats (dominant rats; 30 mg/kg b.i.d. p.o., 5 weeks, dominant rat treated): significantly increased the competitiveness
Median Duration of isolation-induced fighting [1, 2]: 28 s
Median Onset of isolation-induced fighting [1, 2]: 5 s
Median Duration of isolation-induced fighting [1, 3]: 6 s
Median Onset of isolation-induced fighting [1, 3]: 4 s
Median Duration of isolation-induced fighting [1, 4]: 20 s
Median Onset of isolation-induced fighting [1, 4]: 11 s
Median Duration of isolation-induced fighting [1, 5]: 26 s
onset of initiation of fighting compared to vehicle-treated group [1, 5]: significantly shortened
Median Duration of isolation-induced fighting [1, 6]: 18 s
Median Onset of isolation-induced fighting [1, 6]: 14 s
Median Duration of isolation-induced fighting [1, 7]: 9.5 s
Median Onset of isolation-induced fighting [1, 7]: 4 s
Median Duration of isolation-induced fighting [1, 8]: 0.5^b sec
Median Onset of isolation-induced fighting [1, 8]: 40 s
isolation-induced aggressive behavior in pairs of mice ([1]; 40 mg/kg p.o., 1 hour after administration, p<0.05): statistically significantly inhibited
Median Duration of isolation-induced fighting [1, 9]: 20 s
Median Onset of isolation-induced fighting [1, 9]: 17 s
median duration of fighting compared to vehicle-treated groups ([1]; any group (10 to 40 mg/kg p.o.), 4 hours after administration): not affected
